Consider one compound from US20190054060A1 (priority 2016, published 2019).

Test [1] deals with NIRV mutants E119V, R292K and N294S. The following applies: cited from earlier work.
The test system of test [2] is influenza A(H3N2) infection with pneumonia. The following applies: human, in vivo.

As for `CCOC(=O)C1=C[C@@H](OC(CC)CC)[C@H](NC(C)=O)[C@@H](N)C1` [Oseltamivir, ethyl (3R,4R,5S)-5-amino-4-acetamido-3-(pentan-3-yloxy)-cyclohex-1-ene-1-carboxylate], the “increase of the 50% inhibitory concentration (IC50) by NIRV mutants” value in test [1] was over 100 fold. Besides, in test [2], the “Admission to ICU - (%)” value was “(2.7) %”, the “Admission to ICU - no.” value was 3 no, the “Complications: Nosocomial infection - (%)” value is “(5.5) %” and the “Complications: Nosocomial infection - no.” value stood at 6 no. Besides, in test [2], the “Complications: Ventilator associated pneumonia - (%)” value is on record as “(0.9) %”, the “Complications: Ventilator associated pneumonia - no.” value was 1 no, the “Length of hospitalization (median; IQR)” value worked out at 3 and the “Mortality 90-day - (%)” value is recorded as “(10) %”. In test [2], the “Mortality 90-day - no.” value is given as 11 no, the “Readmission ≤30 days from discharge - (%)” value is given as “(17.3) %” and the “Readmission ≤30 days from discharge - no.” value came out at 19 no.
